According to patent US20210024567A1, “MODIFIED CYCLIC DINUCLEOTIDE COMPOUNDS” (BOEHRINGER INGELHEIM INTERNATIONAL GMBH, priority 2018, published 2021):

How the values were obtained:
hSTING R232H = target: T1, hSTING R232H (Homo sapiens, UniProt Q86WV6); experiment: THP1-Blue ISG hSTING KO reporter cells re-expressing hSTING R232H; assay type: cell-based; settings: R232H variant cell line
T1 construct: expressed in transfected cells; host or cells: THP1-Blue ISG hSTING KO clone, retroviral MSCV-ires-GFP-Blasti
T1 sequence (Q86WV6 whole entry, stated change not applied): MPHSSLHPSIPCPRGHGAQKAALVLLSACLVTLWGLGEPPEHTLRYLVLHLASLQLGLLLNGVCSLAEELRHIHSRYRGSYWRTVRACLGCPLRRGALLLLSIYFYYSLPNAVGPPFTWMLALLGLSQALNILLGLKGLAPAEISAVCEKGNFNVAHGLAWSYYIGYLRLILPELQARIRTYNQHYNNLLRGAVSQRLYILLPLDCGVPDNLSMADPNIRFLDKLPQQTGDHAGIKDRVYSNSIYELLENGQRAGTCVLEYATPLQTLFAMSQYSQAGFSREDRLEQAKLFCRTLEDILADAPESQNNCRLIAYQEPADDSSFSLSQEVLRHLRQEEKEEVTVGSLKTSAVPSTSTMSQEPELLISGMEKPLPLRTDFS
Source text: (§1) Several single nucleotide polymorphisms have been identified in the human STING gene that may affect the response to cyclic dinucleotides. To determine the activity of compounds of the invention, THP1-Blue ISG reporter cell lines expressing the different human STING variants have been generated. To do so, the endogenous human STING was first deleted using the CRISPR/CAS9 system: THP1-Blue ISG cells were electroporated with ALL-IN-ONE CRISPR plasmids targeting the STING gene (purchased from Sigma encoding the gRNA and GFP as a reporter gene for successful transduction). GFP positive cells then were sorted 24 h post transfection and expanded. Cells were then dispersed in semisolid methocel medium to allow single cell clone isolations. Clones were then screened for cGAMP responsiveness using the Quanti-blue reporter assay. Non-responsive clones were subsequently analysed for STING loss by western blotting and sequencing of the STING locus.
(§2) For the overexpression of the human STING variants, a confirmed THP1-Blue ISG hSTING KO clone was transduced with individual retroviral plasmids (MSCV-ires-GFP-Blasti) encoding the allelic variants of hSTING (WT, HAQ, R232H, AQ and R293Q), respectively. Transduced cells were sorted for different levels of GFP fluorescence and STING allele expression was analysed by western blot.

[1] = target: Human STING (hSTING, residues 155-341, wild-type sequence) (Homo sapiens, UniProt Q86WV6, H232R); experiment: hSTING binding by differential scanning fluorimetry (DSF); settings: 100 μM test compound, 3 μM target protein, at least two Tm measurements averaged
Chain of Human STING (hSTING, residues 155-341, wild-type sequence) (Q86WV6 155-341 H232R limits assumed): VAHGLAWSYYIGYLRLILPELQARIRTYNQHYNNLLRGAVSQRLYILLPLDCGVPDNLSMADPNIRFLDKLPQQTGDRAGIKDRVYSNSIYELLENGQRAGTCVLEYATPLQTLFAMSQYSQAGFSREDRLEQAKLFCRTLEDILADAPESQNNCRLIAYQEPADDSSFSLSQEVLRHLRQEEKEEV
Experimental: 3) 2 μl of this protein-dye-mixture (25×SYPRO Orange and 15 μM Protein) was added to 8 μl compound solution. Final volume was 10 μL. 4) Certain well positions were used as negative control. 5) The plates were prepared for duplicate measurement and centrifuged for 2 min at 1000 g. 6) In the measurement, 160 cycles of 0.5° C. were used (temperature ramp 15 s/cycle, 15° C. to 95° C.). Data analysis: The dissociation curves were processed in Bio-Rad CFX Manager. Peak type was set to “negative. At least two Tm measurements were averaged.

hSTING HAQ = target: T2, hSTING HAQ (Homo sapiens, UniProt Q86WV6, G230A/H232R/R293Q/R71H); experiment: THP1-Blue ISG hSTING KO reporter cells re-expressing hSTING HAQ; assay type: cell-based; settings: HAQ variant cell line
T2 construct: expressed in transfected cells; host or cells: THP1-Blue ISG hSTING KO clone, retroviral MSCV-ires-GFP-Blasti
T2 sequence (Q86WV6 whole entry R71H/G230A/H232R/R293Q): as the sequence (Q86WV6 whole entry, stated change not applied) above, with R71H, G230A, H232R, R293Q counted along it
Source text: as §1, §2

hSTING WT = target: T3, hSTING WT (Homo sapiens, UniProt Q86WV6, H232R); experiment: THP1-Blue ISG hSTING KO reporter cells re-expressing hSTING WT; assay type: cell-based; settings: WT variant cell line
T3 construct: expressed in transfected cells; host or cells: THP1-Blue ISG hSTING KO clone, retroviral MSCV-ires-GFP-Blasti
T3 sequence (Q86WV6 whole entry H232R): as the sequence (Q86WV6 whole entry, stated change not applied) above, with H232R counted along it
Source text: as §1, §2

hSTING AQ = target: T4, hSTING AQ (Homo sapiens, UniProt Q86WV6, G230A/H232R/R293Q); experiment: THP1-Blue ISG hSTING KO reporter cells re-expressing hSTING AQ; assay type: cell-based; settings: AQ variant cell line
T4 construct: expressed in transfected cells; host or cells: THP1-Blue ISG hSTING KO clone, retroviral MSCV-ires-GFP-Blasti
T4 sequence (Q86WV6 whole entry G230A/H232R/R293Q): as the sequence (Q86WV6 whole entry, stated change not applied) above, with G230A, H232R, R293Q counted along it
Source text: as §1, §2

hSTING R293Q = target: T5, hSTING R293Q (Homo sapiens, UniProt Q86WV6, H232R/R293Q); experiment: THP1-Blue ISG hSTING KO reporter cells re-expressing hSTING R293Q; assay type: cell-based; settings: R293Q variant cell line
T5 construct: expressed in transfected cells; host or cells: THP1-Blue ISG hSTING KO clone, retroviral MSCV-ires-GFP-Blasti
T5 sequence (Q86WV6 whole entry H232R/R293Q): as the sequence (Q86WV6 whole entry, stated change not applied) above, with H232R, R293Q counted along it
Source text: as §1, §2

[2] = target: T6, human STING protein in THP1-Blue ISG cells (Homo sapiens, UniProt Q86WV6, G230A/H232R/R293Q/R71H); experiment: In vitro cytokine induction, THP1-Blue ISG reporter cell assay (IRF-inducible SEAP); assay type: cell-based; settings: 24 hours incubation, SEAP OD at 620 nm
T6 construct: endogenous STING levels form the parental, unmodified THP1-Blue ISG cell lines; endogenous in cells; host or cells: THP1-Blue ISG cells
T6 sequence (Q86WV6 whole entry R71H/G230A/H232R/R293Q): as the sequence (Q86WV6 whole entry, stated change not applied) above, with R71H, G230A, H232R, R293Q counted along it
Source text: Activation of the STING protein expressed in THP1 cells results in an increase of interferon production. By the stable integration of an interferon regulatory factor (IRF)-inducible SEAP (secreted embryonic alkaline phosphatase) reporter construct the functional interferon signaling pathway can be monitored. Using Invivogen's QUANTI-Blue™ colorimetric enzyme assay and a suitable optical density (OD) reader the activity of SEAP can be detected and quantified. This technique could be used to characterize pharmacological modification of the STING protein.
Measurements of SEAP activity were performed in THP1-Blue ISG cells stably expressing the human STING protein and the IRF-inducible SEAP reporter construct. Cells were cultivated for expansion in RPMI1640 medium with 10% fetal calf serum, 50 μg/ml Penicillin-Streptomycin, 100 μg/ml Zeocin, and 100 μg/ml Normocin in a 37°, 95% humidity and 5% CO2 incubator. Assay-ready cells were stored as frozen stocks.
In preparation for the assay, the cells were thawed in Zeocin-/Normocin-free medium and were distributed into the assay plates with a density of 15000 cells/15 μL per well. […]
At the day of the assay, 75 μl per well of Quanti-Blue reagent was added to all wells of the plate and the plate was incubated another 30 minutes at 37° C. The OD at 620 nm was measured on the EnVision reader (PerkinElmer). […]

Row | SMILES | EC50 (hSTING R232H) [µM] | ΔTm at 100 µM ([1]; read-out: hSTING Tm shift) [°C] | EC50 (hSTING HAQ) [µM] | EC50 (hSTING WT) [µM] | EC50 (hSTING AQ) [µM] | EC50 (hSTING R293Q) [µM] | EC50 [2] [µM] | hSTING Tm shift [1] [°C]
1 | Nc1ncnc2c1ncn2[C@@H]1O[C@]23CO[C@@H]1[C@@H]2OP(=O)(S)OC[C@H]1O[C@@H](n2cnc4cncnc42)[C@H](F)[C@@H]1OP(=O)(S)OC3 (single isomer, unassigned) [Example 1.1, Cyclic (2′-F-2′-deoxynebularine-(3′→5′)-phosphorothioate-LNA-adenosine-(3′→5′)-phosphorothioate)] | ≤ 1 | 28.8 | ≤ 1 | ≤ 1 | ≤ 1 | ≤ 1 | 0.25 | –
2 | Nc1ncnc2c1ncn2[C@@H]1O[C@]23CO[C@@H]1[C@@H]2OP(=O)(S)OC[C@H]1O[C@@H](n2cnc4cncnc42)[C@H](F)[C@@H]1OP(=O)(S)OC3 (single isomer, unassigned) [Example 1.2, Cyclic (2′-F-2′-deoxynebularine-(3′→5′)-phosphorothioate-LNA-adenosine-(3′→5′)-phosphorothioate)] | – | – | – | – | – | – | 0.16 | 19.8
